Source: patent publication EP3383875B1, “3-PYRIMIDINYL PYRROLO [2,3-B] PYRIDINE AS ANTICANCER AGENTS AND THE PROCESS FOR THE PREPARATION THEREOF” (Council Of Scientific & Industrial Research, priority 2015, dated 2017)
Read-outs that look alike come from different tables or passages of the source.

How the values were obtained:
CDK-2/cyclin A = CDK-2/cyclin A (Homo sapiens, UniProt P24941); test: CDK inhibition assay, CDK-2/cyclin A against Histone HI, 33P-ATP; assay type: biochemical; conditions: at 500 nM
Protocol: Compounds were evaluated for their ability to inhibit CDK2 and CDK9 as given below.
CDK-2/cyclin A (5-20 mU diluted in 50 mM Hepes pH 7.5, 1 mM DTT, 0.02% Brij35, 100 mM NaCl) was assayed against Histone HI in a final volume of 25.5 µl containing 50 mM Hepes pH7.5, 1 mM DTT, 0.02% Brij35, 100 mM NaCl, Histone HI (1 mg/ml), 10 mM magnesium acetate and 0.02 mM [33P-g-ATP](500-1000 cpm/pmole) and incubated for 30 min at room temperature. Assays were stopped by addition of 5 µl of 0.5 M (3%) orthophosphoric acid and then harvested onto P81 Unifilter plates with a wash buffer of 50 mM orthophosphoric acid.

CDK-9/Cyclin T1 = CDK-9/Cyclin T1 (Homo sapiens, UniProt P50750); test: CDK inhibition assay, CDK-9/Cyclin T1 against substrate peptide, 33P-ATP; assay type: biochemical; conditions: at 500 nM
Sequence of CDK-9/Cyclin T1 (P50750 whole entry): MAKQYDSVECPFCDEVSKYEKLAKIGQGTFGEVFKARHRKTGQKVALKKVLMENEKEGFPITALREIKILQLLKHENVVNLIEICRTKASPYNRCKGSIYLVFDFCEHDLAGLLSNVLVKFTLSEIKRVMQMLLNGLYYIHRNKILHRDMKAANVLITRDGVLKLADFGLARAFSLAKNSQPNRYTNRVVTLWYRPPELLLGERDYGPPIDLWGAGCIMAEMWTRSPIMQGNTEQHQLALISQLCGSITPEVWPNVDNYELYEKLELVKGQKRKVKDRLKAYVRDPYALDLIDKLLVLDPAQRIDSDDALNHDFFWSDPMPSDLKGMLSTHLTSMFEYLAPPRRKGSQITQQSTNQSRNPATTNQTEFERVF
Sequence of CDK-9/Cyclin T1 (O60563 whole entry partner): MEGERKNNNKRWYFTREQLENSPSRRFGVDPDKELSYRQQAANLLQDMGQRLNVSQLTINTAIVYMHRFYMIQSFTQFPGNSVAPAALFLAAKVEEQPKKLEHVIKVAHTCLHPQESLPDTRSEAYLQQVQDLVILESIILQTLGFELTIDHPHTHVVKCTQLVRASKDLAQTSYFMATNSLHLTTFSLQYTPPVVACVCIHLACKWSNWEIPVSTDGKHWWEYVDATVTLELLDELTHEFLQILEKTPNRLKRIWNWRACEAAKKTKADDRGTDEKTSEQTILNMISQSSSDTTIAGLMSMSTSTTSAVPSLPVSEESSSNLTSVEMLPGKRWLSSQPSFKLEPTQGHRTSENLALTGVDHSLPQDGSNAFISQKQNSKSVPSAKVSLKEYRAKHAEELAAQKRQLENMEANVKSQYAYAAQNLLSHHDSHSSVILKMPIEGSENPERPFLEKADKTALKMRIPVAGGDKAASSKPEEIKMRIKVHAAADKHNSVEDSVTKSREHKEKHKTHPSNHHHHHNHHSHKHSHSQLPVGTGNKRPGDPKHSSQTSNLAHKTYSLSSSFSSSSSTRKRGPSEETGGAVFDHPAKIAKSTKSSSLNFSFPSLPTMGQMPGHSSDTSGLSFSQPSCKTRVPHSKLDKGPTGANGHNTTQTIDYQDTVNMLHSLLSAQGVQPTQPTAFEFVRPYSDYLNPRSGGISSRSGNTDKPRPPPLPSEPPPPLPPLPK
Protocol: (50-1000 cpm/pmole) and incubated for 30 min at room temperature. Assays were stopped by addition of 5 µl of 0.5 M (3%) orthophosphoric acid and then harvested onto P81 Unifilter plates with a wash buffer of 50 mM orthophosphoric acid.

[1] = Table-6, read-out: In vitro CDK2 % of inhibition
[2] = Table-6, read-out: In vitro CDK9 % of inhibition
[3] = read-out: inhibition against CDK2
[4] = read-out: inhibition against CDK9

Row | Structure (SMILES) | inhibition at 0.5 µM (CDK-2/cyclin A; [1]) | inhibition at 0.5 µM (CDK-9/Cyclin T1; [2]) | inhibition at 0.5 µM (CDK-2/cyclin A; [3]) | inhibition at 0.5 µM (CDK-9/Cyclin T1; [4])
1 | FC(F)(F)c1ccc(-c2cnc3[nH]cc(-c4ccnc(NC5CC5)n4)c3c2)cc1 [1A1, N-cyclopropyl-4-(5-(4-(trifluoromethyl)phenyl)-1H-pyrrolo[2,3-b]pyridin-3-yl)pyrimidin-2-amine] | < 50% | < 50% | – | –
2 | FC(F)(F)Oc1ccc(-c2cnc3[nH]cc(-c4ccnc(NC5CC5)n4)c3c2)cc1 [1A3, N-cyclopropyl-4-(5-(4-(trifluoromethoxy)phenyl)-1H-pyrrolo[2,3-b]pyridin-3-yl)pyrimidin-2-amine] | > 70% | > 70% | > 70% | > 70%
3 | FC(F)(F)c1cccc(-c2cnc3[nH]cc(-c4ccnc(NC5CC5)n4)c3c2)c1 [1A4, N-cyclopropyl-4-(5-(3-(trifluoromethyl)phenyl)-1H-pyrrolo[2,3-b]pyridin-3-yl)pyrimidin-2-amine] | > 70% | > 70% | > 70% | > 70%
4 | Cc1ccc(-c2cnc3[nH]cc(-c4ccnc(NC5CC5)n4)c3c2)cc1 [1A6, N-cyclopropyl-4-(5-(p-tolyl)-1H-pyrrolo[2,3-b]pyridin-3-yl)pyrimidin-2-amine] | > 70% | > 70% | > 70% | > 70%
5 | Cc1cccc(-c2cnc3[nH]cc(-c4ccnc(NC5CC5)n4)c3c2)c1 [1A7, N-cyclopropyl-4-(5-(m-tolyl)-1H-pyrrolo[2,3-b]pyridin-3-yl)pyrimidin-2-amine] | > 70% | > 70% | > 70% | > 70%
6 | CSc1ccc(-c2cnc3[nH]cc(-c4ccnc(NC5CC5)n4)c3c2)cc1 [1A8, N-cyclopropyl-4-(5-(4-(methylthio)phenyl)-1H-pyrrolo[2,3-b]pyridin-3-yl)pyrimidin-2-amine] | > 70% | > 70% | > 70% | > 70%
7 | CSc1ccccc1-c1cnc2[nH]cc(-c3ccnc(NC4CC4)n3)c2c1 [1A9, N-cyclopropyl-4-(5-(2-(methylthio)phenyl)-1H-pyrrolo[2,3-b]pyridin-3-yl)pyrimidin-2-amine] | > 70% | > 70% | > 70% | > 70%
8 | CCc1ccccc1-c1cnc2[nH]cc(-c3ccnc(NC4CC4)n3)c2c1 [1A10, N-cyclopropyl-4-(5-(2-ethylphenyl)-1H-pyrrolo[2,3-b]pyridin-3-yl)pyrimidin-2-amine] | > 70% | > 70% | > 70% | > 70%
9 | O=Cc1ccc(-c2cnc3[nH]cc(-c4ccnc(NC5CC5)n4)c3c2)cc1 [1A13, 4-(3-(2-(cyclopropylamino)pyrimidin-4-yl)-1H-pyrrolo[2,3-b]pyridin-5-yl)benzaldehyde] | > 70% | > 70% | > 70% | > 70%
10 | COc1ccc2[nH]c(-c3cnc4[nH]cc(-c5ccnc(NC6CC6)n5)c4c3)cc2c1 [1A17, N-cyclopropyl-4-(5-(5-methoxy-1H-indol-2-yl)-1H-pyrrolo[2,3-b]pyridin-3-yl)pyrimidin-2-amine] | > 50% | > 50% | > 50% | > 50%
11 | c1ccc2sc(-c3cnc4[nH]cc(-c5ccnc(NC6CC6)n5)c4c3)cc2c1 [1A18, 4-(5-(benzo[b]thiophen-2-yl)-1H-pyrrolo[2,3-b]pyridin-3-yl)-N-cyclopropylpyrimidin-2-amine] | > 70% | > 70% | > 70% | > 70%
12 | c1ccc2[nH]c(-c3cnc4[nH]cc(-c5ccnc(NC6CC6)n5)c4c3)cc2c1 [1A19, 4-(5-(1H-indol-2-yl)-1H-pyrrolo[2,3-b]pyridin-3-yl)-N-cyclopropylpyrimidin-2-amine] | > 70% | > 70% | > 70% | > 70%
13 | c1ccc2c(-c3cnc4[nH]cc(-c5ccnc(NC6CC6)n5)c4c3)nccc2c1 [1A20, N-cyclopropyl-4-(5-(isoquinolin-1-yl)-1H-pyrrolo[2,3-b]pyridin-3-yl)pyrimidin-2-amine] | > 50% | < 50% | > 50% | > 50%
14 | FC(F)(F)c1ccc(-c2cnc3[nH]cc(-c4ccnc(NC5CCCC5)n4)c3c2)cc1 [1A21, N-cyclopentyl-4-(5-(4-(trifluoromethyl)phenyl)-1H-pyrrolo[2,3-b]pyridin-3-yl)pyrimidin-2-amine] | < 50% | < 50% | – | –
15 | FC(F)(F)c1cccc(-c2cnc3[nH]cc(-c4ccnc(NC5CCCC5)n4)c3c2)c1 [1A24, N-cyclopentyl-4-(5-(3-(trifluoromethyl)phenyl)-1H-pyrrolo[2,3-b]pyridin-3-yl)pyrimidin-2-amine] | > 50% | > 50% | > 50% | > 50%
16 | Fc1cccc(-c2cnc3[nH]cc(-c4ccnc(NC5CCCC5)n4)c3c2)c1 [1A25, N-cyclopentyl-4-(5-(3-fluorophenyl)-1H-pyrrolo[2,3-b]pyridin-3-yl)pyrimidin-2-amine] | > 70% | > 70% | – | –
17 | Cc1ccc(-c2cnc3[nH]cc(-c4ccnc(NC5CCCC5)n4)c3c2)cc1 [1A26, N-cyclopentyl-4-(5-(p-tolyl)-1H-pyrrolo[2,3-b]pyridin-3-yl)pyrimidin-2-amine] | > 50% | > 50% | > 50% | > 50%

Results, then the compound that gave them:

Row | inhibition at 0.5 µM (CDK-2/cyclin A; [1]) | inhibition at 0.5 µM (CDK-9/Cyclin T1; [2]) | inhibition at 0.5 µM (CDK-2/cyclin A; [3]) | inhibition at 0.5 µM (CDK-9/Cyclin T1; [4]) | Structure (SMILES)
18 | > 50% | > 50% | > 50% | > 50% | Cc1cccc(-c2cnc3[nH]cc(-c4ccnc(NC5CCCC5)n4)c3c2)c1 [1A27, N-cyclopentyl-4-(5-(m-tolyl)-1H-pyrrolo[2,3-b]pyridin-3-yl)pyrimidin-2-amine]
19 | > 50% | > 50% | > 50% | > 50% | CSc1ccc(-c2cnc3[nH]cc(-c4ccnc(NC5CCCC5)n4)c3c2)cc1 [1A28, N-cyclopentyl-4-(5-(4-(methylthio)phenyl)-1H-pyrrolo[2,3-b]pyridin-3-yl)pyrimidin-2-amine]
20 | > 70% | > 70% | > 70% | > 70% | CSc1ccccc1-c1cnc2[nH]cc(-c3ccnc(NC4CCCC4)n3)c2c1 [1A29, N-cyclopentyl-4-(5-(2-(methylthio)phenyl)-1H-pyrrolo[2,3-b]pyridin-3-yl)pyrimidin-2-amine]
21 | > 50% | > 50% | > 50% | > 50% | CCc1ccccc1-c1cnc2[nH]cc(-c3ccnc(NC4CCCC4)n3)c2c1 [1A30, N-cyclopentyl-4-(5-(2-ethylphenyl)-1H-pyrrolo[2,3-b]pyridin-3-yl)pyrimidin-2-amine]
22 | > 50% | > 50% | > 50% | > 50% | Clc1ccc(-c2cnc3[nH]cc(-c4ccnc(NC5CCCC5)n4)c3c2)cc1 [1A32, 4-(5-(4-chlorophenyl)-1H-pyrrolo [2,3-b]pyridin-3-yl)-N-cyclopentylpyrimidin-2-amine]
23 | > 70% | > 50% | – | – | O=Cc1ccc(-c2cnc3[nH]cc(-c4ccnc(NC5CCCC5)n4)c3c2)cc1 [1A33, 4-(3-(2-(cyclopentylamino)pyrimidin-4-yl)-1H-pyrrolo[2,3-b]pyridin-5-yl)benzaldehyde]
24 | > 50% | > 50% | – | – | c1ccc2c(-c3cnc4[nH]cc(-c5ccnc(NC6CCCC6)n5)c4c3)cccc2c1 [1A34, N-cyclopentyl-4-(5-(naphthalen-1-yl)-1H-pyrrolo[2,3-b]pyridin-3-yl)pyrimidin-2-amine]
25 | > 50% | > 50% | > 50% | > 50% | c1cncc(-c2cnc3[nH]cc(-c4ccnc(NC5CCCC5)n4)c3c2)c1 [1A35, N-cyclopentyl-4-(5-(pyridin-3-yl)-1H-pyrrolo[2,3-b]pyridin-3-yl)pyrimidin-2-amine]
26 | > 50% | > 50% | > 50% | > 50% | c1cc(-c2c[nH]c3ncc(-c4ccoc4)cc23)nc(NC2CCCC2)n1 [1A36, N-cyclopentyl-4-(5-(furan-3-yl)-1H-pyrrolo[2,3-b]pyridin-3-yl)pyrimidin-2-amine]
27 | > 70% | > 70% | – | – | COc1ccc2[nH]c(-c3cnc4[nH]cc(-c5ccnc(NC6CCCC6)n5)c4c3)cc2c1 [1A37, N-cyclopentyl-4-(5-(5-methoxy-1H-indol-2-yl)-1H-pyrrolo[2,3-b]pyridin-3-yl)pyrimidin-2-amine]
28 | > 50% | > 50% | > 50% | > 50% | c1ccc2sc(-c3cnc4[nH]cc(-c5ccnc(NC6CCCC6)n5)c4c3)cc2c1 [1A38, 4-(5-(benzo[b]thiophen-2-yl)-1H-pyrrolo[2,3-b]pyridin-3-yl)-N-cyclopentylpyrimidin-2-amine]
